Assay results: ChEMBL document CHEMBL1833849, “Novel 4-azasteroidal N-glycoside analogues bearing sugar-like D ring: synthesis and anticancer activities” (2011)

Key:
Type in all cases: functional
[1] = tested on: MCF7; assay: Cytotoxicity against human MCF7 cells assessed as growth inhibition after 3 days by MTT assay; details: MCF7, 72 h
[2] = tested on: HeLa; assay: Cytotoxicity against human HeLa cells assessed as growth inhibition after 3 days by MTT assay; details: 72 h
[3] = tested on: PC-3; assay: Cytotoxicity against human PC3 cells assessed as growth inhibition after 3 days by MTT assay; details: PC-3, 72 h
[4] = tested on: SK-N-SH; assay: Cytotoxicity against human SK-N-SH cells assessed as growth inhibition after 3 days by MTT assay; details: 72 h

Compound `C[C@]12CCC(=O)N[C@@H]1CC[C@@H]1[C@@H]2CC[C@]2(C)O[C@H](n3cnc4c(NCc5ccccc5)ncnc43)CC[C@@H]12` has a GI50 [1] of 136 µM, a GI50 [2] of 129 µM and a GI50 [3] of 20.6 µM. For the same compound, the GI50 [4] was 133 µM.

In the case of `CC(=O)O[C@H]1C(=O)[C@@]2(C)[C@H]([C@H](OC(=O)c3ccccc3)[C@]3(O)C[C@H](OC(=O)[C@H](O)[C@@H](NC(=O)c4ccccc4)c4ccccc4)C(C)=C1C3(C)C)[C@]1(OC(C)=O)CO[C@@H]1C[C@@H]2O` [PACLITAXEL], the GI50 [1] is reported as 1.07 µM, the GI50 [2] is reported as 2.82 µM and the GI50 [3] is reported as 1.46 µM. It also gave a GI50 [4] of 2.19 µM.

`C[C@]12CCC(=O)N[C@@H]1CC[C@@H]1[C@@H]2CC[C@]2(C)O[C@H](n3cnc4c(Cl)nc(F)nc43)CC[C@@H]12` was tested, and the GI50 [1] was 16.7 µM, the GI50 [2] was 13.3 µM and the GI50 [3] was 3.76 µM. For the same compound, the GI50 [4] was 10.7 µM.

Work on `C[C@]12CCC(=O)N[C@@H]1CC[C@@H]1[C@@H]2CC[C@]2(C)O[C@H](n3cnc4c(Cl)nc(Cl)nc43)CC[C@@H]12` yielded a GI50 [1] of 34.2 µM, a GI50 [2] of 7.57 µM and a GI50 [3] of 11.2 µM. For the same compound, the GI50 [4] was 34.2 µM.

Compound `C[C@]12CCC(=O)N[C@@H]1CC[C@@H]1[C@@H]2CC[C@]2(C)O[C@H](n3cnc4c(Cl)ncnc43)CC[C@@H]12` has a GI50 [1] of 20.9 µM, a GI50 [2] of 17.7 µM and a GI50 [3] of 3.25 µM. The GI50 [4] was 103 µM.
